Measurements: patent publication US8906826B2, “Herbicidal compositions comprising 4-amino-3-chloro-5-fluoro-6-(4-chloro-2-fluoro-3-methoxyphenyl) pyridine-2-carboxylic acid or a derivative thereof and imidazolinones” (Dow AgroSciences, LLC, priority 2012, dated 2014)

Assays:
IPOHE = assay: Postemergence foliar-applied, direct seeded rice weeds (Example I); type: in vivo, Ipomoea hederacea Jacq.
Source text: (§1) Seeds or nutlets of the desired test plant species were planted in a soil matrix prepared by mixing a loam or sandy loam soil (e.g., 28.6 percent silt, 18.8 percent clay, and 52.6 percent sand, with a pH of about 5.8 and an organic matter content of about 1.8 percent) and calcareous grit in an 80 to 20 ratio. The soil matrix was contained in plastic pots with a volume of 1 quart and a surface area of 83.6 cm^2. When required to ensure good germination and healthy plants, a fungicide treatment and/or other chemical or physical treatment was applied. The plants were grown for 8-22 days in a greenhouse with an approximate 14 h photoperiod which was maintained at about 29° C. during the day and 26° C. during the night. Nutrients (Peters Excel® 15-5-15 5-Ca 2-Mg and iron chelate) were applied in the irrigation solution as needed and water was added on a regular basis. Supplemental lighting was provided with overhead metal halide 1000-Watt lamps as necessary. The plants were employed for testing when they reached the first through fourth true leaf stage.
(§2) Treatments consisted of the acid or esters of 4-amino-3-chloro-5-fluoro-6-(4-chloro-2-fluoro-3-methoxy-phenyl)pyridine-2-carboxylic acid (Compound A), each formulated as an SC (suspension concentrate), and various herbicidal components alone and in combination. Forms of compound A were applied on an acid equivalent basis.
(§3) Other herbicidal components were applied on an acid equivalent basis and include acetolactate synthase (ALS)-inhibiting herbicides (imidazolinone chemical class) imazethapyr ammonium salt formulated as Newpath®, imazamox ammonium salt formulated as Beyond®, imazapic ammonium salt formulated as Plateau®, imazapyr isopropylamine salt formulated as Arsenal®, imazamethabenz-methyl (technical material) and imazaquin isopropylamine salt formulated as Scepter®/Imagine®.
(§4) Treatment requirements were calculated based upon the rates being tested, the concentration of active ingredient or acid equivalent in the formulation, and a 12 mL application volume at a rate of 187 L/ha.
(§5) For treatments comprised of formulated compounds, measured amounts of compounds were placed individually in 25 mL glass vials and diluted in a volume of 1.25% (v/v) Agri-Dex® crop oil concentrated to obtain 12× stock solutions. […] Application solutions were prepared by adding an appropriate amount of each stock solution (e.g., 1 mL) and diluted to the appropriate final concentrations with the addition of 10 mL of an aqueous mixture of 1.25% (v/v) crop oil concentrate so that the final spray solutions contained 1.25+/−0.05% (v/v) crop oil concentrate.
(§6) For treatments comprised of technical compounds, weighed amounts can be placed individually in 25 mL glass vials and dissolved in a volume of 97:3 v/v acetone/DMSO to obtain 12× stock solutions. […] Application solutions can be prepared by adding an appropriate amount of each stock solution (e.g., 1 mL) and diluted to the appropriate final concentrations with the addition of 10 mL of an aqueous mixture of 1.5% (v/v) crop oil concentrate so that the final spray solutions contain 1.25% (v/v) crop oil concentrate. When technical materials are used, the concentrated stock solutions can be added to the spray solutions so that the final acetone and DMSO concentrations of the application solutions are 16.2% and 0.5%, respectively.
(§7) For treatments comprised of formulated and technical compounds, weighed amounts of the technical materials were placed individually in 25 mL glass vials and dissolved in a volume of 97:3 v/v acetone/DMSO to obtain 12× stock solutions, and measured amounts of the formulated compounds were placed individually in 25 mL glass vials and diluted in a volume of 1.5% (v/v) crop oil concentrate or water to obtain 12× stock solutions. […]

DIGSA = assay: as above; type: in vivo, Digitaria sanguinalis (L.) Scop.; conditions: Compound A n-Butyl Ester 16 gae/ha
Source text: as §1, §2, §3, §4
For treatments comprised of formulated compounds, measured amounts of compounds were placed individually in 25 mL glass vials and diluted in a volume of 1.25% (v/v) Agri-Dex® crop oil concentrated to obtain 12× stock solutions. […]
as §7

ECHOR = assay: In-water applied, transplanted paddy rice weeds (Example II); type: in vivo, Echinochloa oryzoides (Ard.) Fritsch
Procedure: (§8) Weed seeds or nutlets of the desired test plant species were planted in puddled soil (mud) prepared by mixing a shredded, non-sterilized mineral soil (50.5 percent silt, 25.5 percent clay, and 24 percent sand, with a pH of about 7.6 and an organic matter content of about 2.9 percent) and water at a 1:1 volumetric ratio. The prepared mud was dispensed in 365 mL aliquots into 16-ounce (oz.) non-perforated plastic pots with a surface area of 86.59 square centimeters (cm^2) leaving a headspace of 3 centimeters (cm) in each pot. Mud was allowed to dry overnight prior to planting or transplanting. Rice seeds were planted in Sun Gro MetroMix® 306 planting mixture, which typically has a pH of about 6.0 to about 6.8 and an organic matter content of about 30 percent, in plastic plug trays. Seedlings at the second or third leaf stage of growth were transplanted into 860 mL of mud contained in 32-oz. non-perforated plastic pots with a surface area of 86.59 cm^2 4 days prior to herbicide application. The paddy was created by filling the headspace of the pots with 2.5 to 3 cm of water. When required to ensure good germination and healthy plants, a fungicide treatment and/or other chemical or physical treatment was applied. The plants were grown for 4-22 days in a greenhouse with an approximate 14 h photoperiod which was maintained at about 29° C. during the day and about 26° C. during the night. Nutrients were added as Osmocote® (19:6:12, N:P:K+minor nutrients) at 2 g per 16-oz. pot and 4 g per 32-oz. pot. Water was added on a regular basis to maintain the paddy flood, and supplemental lighting was provided with overhead metal halide 1000-Watt lamps as necessary. The plants were employed for testing when they reached the first through fourth true leaf stage.
Treatments consisted of the acid or esters of 4-amino-3-chloro-5-fluoro-6-(4-chloro-2-fluoro-3-methoxy-phenyl)pyridine-2-carboxylic acid (compound A) each formulated as an SC and various herbicidal components alone and in combination. Forms of compound A were applied on an acid equivalent basis.
as §3, with “included the” for “include”, “(ALS)-inhibiting imidazolinone” for “(ALS)-inhibiting”, “herbicides” for “herbicides (imidazolinone chemical class)”, “material),” for “material)”, “Scepter®.” for “Scepter®/Imagine®.”
(§9) Treatment requirements for each compound or herbicidal component were calculated based upon the rates being tested, the concentration of active ingredient or acid equivalent in the formulation, an application volume of 2 mL per component per pot, and an application area of 86.59 cm^2 per pot.
For formulated compounds, a measured amount was placed in an individual 100 or 200 mL glass vial and was dissolved in a volume of 1.25% (v/v) Agri-Dex® crop oil concentrate to obtain application solutions.
For technical grade compounds, a weighed amount was placed in an individual 100 to 200 mL glass vial and was dissolved in a volume of acetone to obtain concentrated stock solutions. […] The concentrated stock solutions obtained were diluted with an equivalent volume of an aqueous mixture containing 2.5% (v/v) crop oil concentrate so that the final application solutions contained 1.25% (v/v) crop oil concentrate.
Applications were made by injecting with a pipetter appropriate amounts of the application solutions, individually and sequentially, into the aqueous layer of the paddy. Control plants were treated in the same manner with the solvent blank. Applications were made so that all treated plant material received the same concentrations of acetone and crop oil concentrate.
The treated plants and control plants were placed in a greenhouse as described above and water was added as needed to maintain a paddy flood. […]

CYPRO = assay: as above; type: in vivo, Cyperus rotundus L.; conditions: Imazapyr IPA 70 gae/ha
Procedure: as §8, with “Water was added on a regular basis to maintain the paddy flood, and supplemental lighting was provided with overhead metal halide 1000-Watt lamps as necessary. The plants were employed for testing when they reached the first through fourth true leaf stage.” left out
as §9
For formulated compounds, a measured amount was placed in an individual 100 or 200 mL glass vial and was dissolved in a volume of 1.25% (v/v) Agri-Dex® crop oil concentrate to obtain application solutions. […]

CYPIR = assay: Postemergence foliar-applied, direct seeded rice weeds (Example I); type: in vivo, Cyperus iria L.
Source text: as §1, §2, §3, §4, §5, §6, §7

CHEAL = assay: Postemergence herbicidal activity in cereal crops, greenhouse (Example V); type: in vivo, Chenopodium album L.; conditions: Imazamethabenz-methyl 200 gai/ha
Procedure: (§10) Seeds of the desired test plant species were planted in Sun Gro MetroMix® 306 planting mixture, which typically has a pH of 6.0 to 6.8 and an organic matter content of about 30 percent, in plastic pots with a surface area of 103.2 square centimeters (cm^2). When required to ensure good germination and healthy plants, a fungicide treatment and/or other chemical or physical treatment was applied. The plants were grown for 7-36 days in a greenhouse with an approximate 14 hour photoperiod which was maintained at about 18° C. during the day and about 17° C. during the night. Nutrients and water were added on a regular basis and supplemental lighting was provided with overhead metal halide 1000-Watt lamps as necessary. The plants were employed for testing when they reached the second or third true leaf stage.
(§11) Treatments consisted of the benzyl ester of 4-amino-3-chloro-5-fluoro-6-(4-chloro-2-fluoro-3-methoxy-phenyl)pyridine-2-carboxylic acid (Compound A), formulated as an SC, a second cereal herbicide alone and then both in combination.
(§12) Other herbicidal components were applied on an acid equivalent basis and include acetolactate synthase (ALS)-inhibiting herbicides (imidazolinone chemical class) imazamethabenz-methyl formulated as Assert®. Spray solutions of the second cereal herbicide and experimental compound mixtures were prepared by adding the stock solutions to the appropriate amount of dilution solution to form 12 mL spray solution with active ingredients in two- and three-way combinations. […]
(§13) The treated plants and control plants were placed in a greenhouse as described above and watered by sub-irrigation to prevent wash-off of the test compounds. After 20-22 days, the condition of the test plants as compared with that of the control plants was determined visually and scored on a scale of 0 to 100 percent where 0 corresponds to no injury and 100 corresponds to complete kill. […]

CIRAR = assay: as above; type: in vivo, Cirsium arvense (L.) Scop.; conditions: Imazamethabenz-methyl 200 gai/ha
Procedure: as §10, §11, §12, §13

PAPRH = assay: as above; type: in vivo, Papaver rhoeas L.; conditions: Imazamethabenz-methyl 200 gai/ha
Procedure: as §10, §11, §12, §13

SASKR = assay: as above; type: in vivo, Salsola iberica L.; conditions: Imazamethabenz-methyl 200 gai/ha
Procedure: as §10, §11, §12, §13

SINAR = assay: as above; type: in vivo, Sinapis arvensis L.; conditions: Imazamethabenz-methyl 200 gai/ha
Procedure: as §10, §11, §12, §13

VERPE = assay: as above; type: in vivo, Veronica persica Poir.; conditions: Imazamethabenz-methyl 200 gai/ha
Procedure: as §10, §11, §12, §13

CC(C)C1(C)N=C(c2nc3ccccc3cc2C(=O)O)NC1=O (racemic) [Imazaquin IPA, (±)-2-[4,5-dihydro-4-methyl-4-(1-methylethyl)-5-oxo-1H-imidazol-2-yl]-3-quinolinecarboxylic acid with 2-propanamine, reference compound]
Visual Weed Control (%) - 21 DAA IPOHE Obs (IPOHE; Imazaquin IPA 9 gae/ha): 0%
Visual Weed Control (%) - 21 DAA IPOHE Obs (IPOHE; Imazaquin IPA 18 gae/ha): 10%
Visual Weed Control (%) - 21 DAA IPOHE Obs (IPOHE; Imazaquin IPA 36 gae/ha): 0%

CCCCOC(=O)c1nc(-c2ccc(Cl)c(OC)c2F)c(F)c(N)c1Cl [Compound A n-Butyl Ester]
Visual Weed Control (%) - 20 DAA DIGSA Obs (DIGSA): 15%

CC(C)C1(C)N=C(c2ncccc2C(=O)O)NC1=O (stereo not drawn) [Imazapyr IPA, 2-[4,5-dihydro-4-methyl-4-(1-methylethyl)-5-oxo-1H-imidazol-2-yl]-3-pyridinecarboxylic acid compound with 2-propanamine, reference compound]
Visual Weed Control (%) - 21 DAA IPOHE Obs (IPOHE; Imazapyr IPA 4.38 gae/ha): 50%
Visual Weed Control (%) - 21 DAA IPOHE Obs (IPOHE; Imazapyr IPA 8.75 gae/ha): 40%
Visual Weed Control (%) - 22 DAA ECHOR Obs (ECHOR; Imazapyr IPA 70 gae/ha): 50%
Visual Weed Control (%) - 22 DAA ECHOR Obs (ECHOR; Imazapyr IPA 140 gae/ha): 85%
Visual Weed Control (%) - 22 DAA CYPRO Obs (CYPRO): 70%

methyl 2-[4,5-dihydro-4-methyl-4-(1-methylethyl)-5-oxo-1H-imidazol-2-yl]-4-methylbenzoic acid or methyl 2-[4,5-dihydro-4-methyl-4-(1-methylethyl)-5-oxo-1H-imidazol-2-yl]-5-methylbenzoic acid or mixtures thereof [Imazamethabenz-methyl, reference compound]
Visual Weed Control (%) - 22 DAA CYPIR Obs (CYPIR; Imazamethabenz-methyl 43.75 gai/ha): 0%
Visual Weed Control (%) - 22 DAA CYPIR Obs (CYPIR; Imazamethabenz-methyl 87.5 gai/ha): 20%
Visual Weed Control (%) - 22 DAA CYPIR Obs (CYPIR; Imazamethabenz-methyl 175 gai/ha): 25%
Visual Weed Control (%) - 21 DAA CHEAL Obs (CHEAL): 0%
Visual Weed Control (%) - 21 DAA CIRAR Obs (CIRAR): 0%
Visual Weed Control (%) - 21 DAA PAPRH Obs (PAPRH): 0%
Visual Weed Control (%) - 21 DAA SASKR Obs (SASKR): 70%
Visual Weed Control (%) - 21 DAA SINAR Obs (SINAR): 70%
Visual Weed Control (%) - 21 DAA VERPE Obs (VERPE): 0%
